From ChEMBL document CHEMBL1126535, “Angiotensin II receptor antagonists containing a phenylpyridine element” (Bioorg Med Chem Lett, 1993)

What was measured:
[1] = biological target: T1, Type-1 angiotensin II receptor (Oryctolagus cuniculus, UniProt P34976); test: In vitro binding affinity towards Angiotensin II type 1-AT1 receptor determined as its ability to displace 125I-Sarl,Ile8-AII from the receptor expressed in rabbit aorta membrane.; assay type: cell membranes
T1 sequence (P34976 whole entry): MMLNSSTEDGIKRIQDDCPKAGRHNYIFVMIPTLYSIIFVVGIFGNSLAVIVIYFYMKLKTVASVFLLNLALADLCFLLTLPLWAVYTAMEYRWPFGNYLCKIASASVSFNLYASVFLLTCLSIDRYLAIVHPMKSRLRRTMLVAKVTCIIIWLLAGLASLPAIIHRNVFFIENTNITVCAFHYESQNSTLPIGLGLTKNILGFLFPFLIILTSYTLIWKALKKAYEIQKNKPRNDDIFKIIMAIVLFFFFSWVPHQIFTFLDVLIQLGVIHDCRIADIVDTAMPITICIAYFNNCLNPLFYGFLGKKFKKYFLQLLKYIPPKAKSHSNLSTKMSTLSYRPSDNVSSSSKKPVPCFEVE

[2] = biological target: T2, Type-2 angiotensin II receptor (Rattus norvegicus, UniProt P35351); test: In vitro binding affinity towards Angiotensin II receptor, type 2 determined as its ability to displace 125I-Sarl,Ile8-AII from the receptor expressed in rat midbrain membrane.; assay type: cell membranes
T2 sequence (P35351 whole entry): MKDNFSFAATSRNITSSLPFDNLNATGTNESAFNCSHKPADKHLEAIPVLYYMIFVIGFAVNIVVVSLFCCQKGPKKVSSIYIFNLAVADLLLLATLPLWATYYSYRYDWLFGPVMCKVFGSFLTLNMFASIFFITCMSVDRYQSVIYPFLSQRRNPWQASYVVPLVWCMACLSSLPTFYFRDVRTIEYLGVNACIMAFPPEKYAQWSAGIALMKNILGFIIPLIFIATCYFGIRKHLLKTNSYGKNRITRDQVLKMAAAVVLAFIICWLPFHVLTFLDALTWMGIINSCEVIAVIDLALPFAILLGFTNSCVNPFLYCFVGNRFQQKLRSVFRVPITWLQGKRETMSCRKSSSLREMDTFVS

[3] = test system: Rattus norvegicus; test: In vivo potency for the inhibition of pressor response in normotensive rats (i.v.); assay type: functional

| Structure (SMILES) | IC50 [1] [nM] | IC50 [2] [nM] | Activity [3] [mg/kg] |
| --- | --- | --- | --- |
| CCCc1nc2c(C)ccnc2n1Cc1ccc(-c2ccccc2-c2nn[nH]n2)cc1 | 1 | – | – |
| CCCc1nc2c(C)ccnc2n1Cc1ccc(-c2ncccc2-c2nn[nH]n2)cc1 | – | > 20000 | – |
| CCCc1nc2c(C)ccnc2n1Cc1ccc(-c2cccnc2-c2nn[nH]n2)cc1 | 60 | > 20000 | – |

More lines, main results first:

| IC50 [1] [nM] | IC50 [2] [nM] | Structure (SMILES) | Activity [3] [mg/kg] |
| --- | --- | --- | --- |
| 4 | > 20000 | CCCc1nc2c(C)ccnc2n1Cc1ccc(-c2ccncc2-c2nn[nH]n2)cc1 | 0.1 |
| – | > 20000 | CCc1nc2c(C)cc(C)nc2n1Cc1ccc(-c2ccccc2-c2nnn[nH]2)cc1 [L-158809] | – |
